Like-named read-outs stand apart in the source and are kept apart here.
Experiments:
Strain 5150 = test: Inhibition of proliferation of multi-resistant field isolates, asynchronous asexual stages, SYBR-green assay; type: cell-based, P. falciparum; conditions: Plasmodium falciparum, read-out: IC50 nM Strain 5150 mean*
Experimental: (§1) Compounds 63 and 84 were evaluated regarding the inhibition of the proliferation of multi-resistant field isolates adapted to culture. A panel of four Cambodian strains bearing different molecular markers of resistance were selected: 3D7: Laboratory strain, drug-sensitive, 5150: Cambodian isolate resistant to Chloroquine and Pyrimethamine, 6591: Cambodian isolate resistant to Chloroquine, Pyrimethamine, 5248: Cambodian isolate resistant to Chloroquine, Pyrimethamine, Mefloquine and Artemisinin, 6320: Cambodian isolate resistant to Chloroquine, Pyrimethamine, Piperaquine and Artemisinin.
(§2) IC50 were obtained against asynchronous asexual stages using SYBR-green assay after 72h of incubation with a serial dilution of the compounds. Data represents the mean and SD of 3 independent experiments ran in triplicates. Table 2 illustrates mean IC50 values and their standard deviation in nanomolar.

Strain 5248 = test: as above; type: cell-based, P. falciparum; conditions: Plasmodium falciparum, read-out: IC50 nM Strain 5248 mean*
Experimental: as §1, §2

Strain 6320 = test: as above; type: cell-based, P. falciparum; conditions: Plasmodium falciparum, read-out: IC50 nM Strain 6320 mean*
Experimental: as §1, §2

Strain 6591 = test: as above; type: cell-based, P. falciparum; conditions: Plasmodium falciparum, read-out: IC50 nM Strain 6591 mean*
Experimental: as §1, §2

Lab. Strain 3D7 = test: Inhibition of proliferation, asynchronous asexual stages, SYBR-green assay, laboratory strain; type: cell-based, P. falciparum; conditions: Plasmodium falciparum, read-out: IC50 nM Lab. Strain 3D7 mean*
Experimental: as §1, §2

[1] = test system: P. falciparum NF54 (drug-sensitive line); test: Inhibition of proliferation of asynchronous asexual cultures (SYBR Green I based assay, 72h); type: cell-based; conditions: for activity at 5 µM: first screen at 5µM in duplicate, 72h, NF54, read-out: % survival @5uM
Experimental: Compounds were provided at a concentration of 10 mM in DMSO.
P. falciparum parasite are cultured using standard protocol (Trager and Jensen, Science 1976, 193(4254), 673-675). Briefly, parasites are cultured at 4% hematocrit (O+ human blood, Etablissement Français du Sang, France) in RPMI1640 complemented with 0.1% Albumax I, HEPES buffer, hypoxanthine, and gentamycin. They are incubated at 37°C under an atmosphere of 5% CO2 and 5% O2.
Compounds of the invention were assayed for a first screen at 5µM in duplicate against asynchronous asexual cultures of P. falciparum NF54 (drug-sensitive line) containing mostly rings (2% hematocrit. 0.5% starting parasitemia). Plates were incubated for 72h at 37°C under a reduced oxygen atmosphere. Parasite growth was assessed using the SYBR Green I based assay.
IC50 were determined using Graphpad Prism 6 software. Dihydroartemisinin (starting concentration 50nM) and DMSO were used as positive and negative controls.

Parasites = test: Parasite reduction rate (time needed to kill the parasites); type: cell-based; conditions: survival curves, duration of treatment versus log viable parasites, Figure 3
Experimental: Parasites are incubated (see for example Sanz et al. PLoS ONE 7, e30949 (2012)) with a compound of the invention (or a reference) for different time-windows, washed, and diluted serially in 96-well plates in fresh red blood cells. Parasites are kept in culture for 3 to 4 weeks, when growth is assessed to evaluate the number of parasites that survive-correlated to the number of wells where growth is found. Survival curves are obtained by plotting the duration of treatment versus the log of the number of viable parasites (figure 3).

[2] = Plasmodium falciparum, NF54, 72 h, SYBR Green I, read-out: Malaria CI50
[3] = Plasmodium falciparum, NF54, 72h, SYBR Green I, read-out: Malaria CI50

IC50 [1, 2] [nM]	Structure (SMILES)	activity at 5 µM ([1]; Plasmodium falciparum) [%]	also measured
383 ± 173	COc1ccc2cc1Oc1ccc(cc1)CC1c3c(cc(OC)c4c3Oc3cc5c(cc3O4)CCN(C(=O)Nc3cccnc3)C5C2)CCN1C (stereo not drawn) [Compound 27]	12.7	–
504 ± 134	COc1ccc2cc1Oc1ccc(cc1)CC1c3c(cc(OC)c4c3Oc3cc5c(cc3O4)CCN(C)C5C2)CCN1C(=O)NCc1ccccc1 (stereo not drawn) [Compound 28]	14.4	–
437 ± 83	COc1ccc2cc1Oc1ccc(cc1)CC1c3c(cc(OC)c4c3Oc3cc5c(cc3O4)CCN(C)C5C2)CCN1CCOCCOCCO (stereo not drawn) [Compound 42]	12.9	–
195 ± 55	COc1ccc2cc1Oc1ccc(cc1)CC1c3c(cc(OC)c4c3Oc3cc5c(cc3O4)CCN(C)C5C2)CCN1CC(O)CO (stereo not drawn) [Compound 48]	11.8	–
227 ± 59	COc1ccc2cc1Oc1ccc(cc1)CC1c3c(cc(OC)c4c3Oc3cc5c(cc3O4)CCN(C(=O)NCCN3CCN(C)CC3)C5C2)CCN1C (stereo not drawn) [Compound 60]	15.4	–
189	COc1cc2c3c4c1Oc1cc5c(cc1O4)C(Cc1ccc(OCCCN4CCN(C)CC4)c(c1)Oc1ccc(cc1)CC3N(C)CC2)N(C)CC5 (stereo not drawn) [Compound 68]	14.8	–
297 ± 42	COc1cc2c3c4c1Oc1cc5c(cc1O4)C(Cc1ccc(OC4CCCN(C)CC4)c(c1)Oc1ccc(cc1)CC3N(C)CC2)N(C)CC5 (stereo not drawn) [Compound 74]	14.7	–
352 ± 54	COc1cc2c3c4c1Oc1cc5c(cc1O4)C(Cc1ccc(OCCC4CCCN4C)c(c1)Oc1ccc(cc1)CC3N(C)CC2)N(C)CC5 (stereo not drawn) [Compound 75]	14.9	–
331 ± 29	CCN(CC)CCOc1ccc2cc1Oc1ccc(cc1)CC1c3c(cc(OC)c4c3Oc3cc5c(cc3O4)CCN(C)C5C2)CCN1C (stereo not drawn) [Compound 78]	12.6	–
428 ± 77	CCN(CC)CCCNC(=O)N1CCc2cc(OC)c3c4c2C1Cc1ccc(cc1)Oc1cc(ccc1OC)CC1c2cc(c(cc2CCN1C)O3)O4 (stereo not drawn) [Compound 89]	14.4	–
153 ± 58	CN(C)CCCOc1ccc2cc1Oc1ccc(cc1)CC1c3c(cc(O)c4c3Oc3cc5c(cc3O4)CCN(C)C5C2)CCN1C (stereo not drawn) [Compound 113]	–	–
263 ± 50	COc1cc2c3c4c1Oc1cc5c(cc1O4)C(Cc1ccc(OCCCN(C)C)c(c1)Oc1ccc(cc1)CC3NCC2)N(C)CC5 (stereo not drawn) [Compound 116]	–	–

The next lines start with the compound.

Structure (SMILES)	IC50 [1, 2] [nM]	activity at 5 µM ([1]; Plasmodium falciparum) [%]	also measured
CCN(CC)CCCC(C)Nc1ccnc2cc(Cl)ccc12 (stereo not drawn) [Chloroquine]	–	–	IC50 (Strain 5150; 72 h): 55 nM; IC50 (Strain 5248; 72 h): 98 nM; IC50 (Strain 6320; 72 h): 109 nM; IC50 (Strain 6591; 72 h): 64 nM; IC50 (Lab. Strain 3D7; 3D7, 72 h): 13 nM
COc1ccc2cc1Oc1ccc(cc1)CC1c3c(cc(OC)c4c3Oc3cc5c(cc3O4)CCN(C(=O)Nc3ccncc3)C5C2)CCN1C (stereo not drawn) [Compound 23]	223 ± 58	13.4	–
COc1ccc2cc1Oc1ccc(cc1)CC1c3c(cc(OC)c4c3Oc3cc5c(cc3O4)CCN(C(=O)NCc3ccncc3)C5C2)CCN1C (stereo not drawn) [Compound 31]	151 ± 21	14.8	–
COc1ccc2cc1Oc1ccc(cc1)CC1c3c(cc(OC)c4c3Oc3cc5c(cc3O4)CCN(CCOCCOCCO)C5C2)CCN1C (stereo not drawn) [Compound 43]	438 ± 95	13.3	–
COc1ccc2cc1Oc1ccc(cc1)CC1c3c(cc(OC)c4c3Oc3cc5c(cc3O4)CCN(C)C5C2)CCN1CCCN(C)C (stereo not drawn) [Compound 46]	169 ± 10	14.2	–
COc1cc2c3c4c1Oc1cc5c(cc1O4)C(Cc1ccc(OCC4CO4)c(c1)Oc1ccc(cc1)CC3N(C)CC2)N(C)CC5 (stereo not drawn) [Compound 73]	299 ± 25	15.8	–
COc1cc2c3c4c1Oc1cc5c(cc1O4)C(Cc1ccc(OCCN(C)C)c(c1)Oc1ccc(cc1)CC3N(C)CC2)N(C)CC5 (stereo not drawn) [Compound 82]	260 ± 34	13.4	–
CCN(CC)CCCNC(=O)N1CCc2cc3c4cc2C1Cc1ccc(OC)c(c1)Oc1ccc(cc1)CC1c2c(cc(OC)c(c2O4)O3)CCN1C(=O)NCCCN(CC)CC (stereo not drawn) [Compound 87]	441 ± 67	11.3	–
CCN(CC)CCCNC(=O)N1CCc2cc3c4cc2C1Cc1ccc(OC)c(c1)Oc1ccc(cc1)CC1c2c(cc(OC)c(c2O4)O3)CCN1C (stereo not drawn) [Compound 88]	297 ± 31	14.7	–
CN1CCc2cc3c4cc2C1Cc1ccc(O)c(c1)Oc1ccc(cc1)CC1c2c(cc(O)c(c2O4)O3)CCN1C (stereo not drawn) [Compound 110]	–	–	IC50 [1, 3]: 146 ± 39 nM
Oc1ccc2cc1Oc1ccc(cc1)CC1NCCc3cc(O)c4c(c31)Oc1cc3c(cc1O4)CCNC3C2 (stereo not drawn) [Compound 121]	–	–	IC50 [1, 3]: 115 ± 55 nM; Speed of action (parasite reduction rate) (Parasites): act as fast as dihydroartemisinin (DHA)
CN1CCc2cc3c4cc2C1Cc1ccc(O)c(c1)Oc1ccc(cc1)CC1NCCc2cc(O)c(c(c21)O4)O3 (stereo not drawn) [Compound 122]	–	–	IC50 [1, 3]: 248 ± 58 nM
CN(C)Cc1cc2cc(c1O)Oc1ccc(cc1)CC1c3c(c(CN(C)C)c(O)c4c3Oc3cc5c(cc3O4)CCN(C)C5C2)CCN1C (stereo not drawn) [Compound 123]	283 ± 155	–	–
COc1ccc2cc1Oc1ccc(cc1)C[C@H]1c3c(cc(OC)c4c3Oc3cc5c(cc3O4)CCN(C)[C@H]5C2)CCN1C [Isotrilobine, reference compound]	–	–	IC50 ([1]; Plasmodium falciparum, NF54, 72 h, same conditions as Table 1 (NF54, 72h), read-out: mean IC50 +/- SD): 1780 nM
COc1ccc2cc1Oc1ccc(cc1)C[C@@H]1NCCc3cc(OC)c4c(c31)Oc1cc3c(cc1O4)CCN[C@H]3C2 [Nortrilobine, reference compound]	–	–	IC50 ([1]; same conditions as Table 1 (NF54, 72h), read-out: mean IC50 +/- SD): 1220 ± 130 nM
Clc1ccc2c(N3CCN(CCCN4CCN(c5ccnc6cc(Cl)ccc56)CC4)CC3)ccnc2c1 [Piperaquine]	–	–	IC50 (Strain 5150; 72 h): 26 nM; IC50 (Strain 5248; 72 h): 33 nM; IC50 (Strain 6320; 72 h): > 200 nM; IC50 (Strain 6591; 72 h): 34 nM; IC50 (Lab. Strain 3D7; 3D7, 72 h): 41 nM
CCc1nc(N)nc(N)c1-c1ccc(Cl)cc1 [Pyrimethamine]	–	–	IC50 (Strain 5150; 72h, Cambodian isolate resistant to Chloroquine and Pyrimethamine, mean of three replicates): > 5000 nM; IC50 (Strain 5248; 72h, Cambodian isolate resistant to Chloroquine, Pyrimethamine, Mefloquine and Artemisinin, mean of three replicates): > 5000 nM; IC50 (Strain 6320; 72h, Cambodian isolate resistant to Chloroquine, Pyrimethamine, Piperaquine and Artemisinin, mean of three replicates): > 5000 nM; IC50 (Strain 6591; 72h, Cambodian isolate resistant to Chloroquine, Pyrimethamine, mean of three replicates): > 5000 nM; IC50 (Lab. Strain 3D7; 3D7, 72h, laboratory strain, drug-sensitive, mean of three replicates): 30 nM
